In US5650415A, “Quinoline compounds” (Sugen, Inc., priority 1995, dated 1997) one finds IC50 data, which are given here for 14 molecules.

The assay relates to HER2. Put plainly: HER2 whole cell kinase ELISA (first HER2 column of Table 1). The format is cell-based. The note with it: cell line not given. From the text: The following examples illustrates the ability of the exemplary compounds to inhibit receptor tyrosine kinases, such as HER2 and/or EGFR. The following target cells were used for cellular kinase assays: NIH3T3 clone C7 (Honegger et al., supra) engineered to over-express human EGF receptor; NIH3T3 cells engineered to over-express a chimeric receptor containing the EGFR extracellular domain and the HER2 intracellular kinase domain; the human mammary carcinoma line BT474 (ATCC HTB2) expressing HER2; and the human glioblastoma line U1242 that expresses PDGFR-beta. Growth assays were carried out using human mammary epithelial SKBR3 (ATCC HTB30) cells (SKBR3 cells over-express HER2), SKOV3 (AT(D(D HTB77) human ovarian cancer cell line (SKOV3 cells also over-express HER2), A431 cells (A431 cells over-express EGFR) MCF7 human breast carcinoma cells, MCF7 cells overexpressing the HER2 kinase (MCF7-HER2), NIH3T3 cells, and NIH3T3 cells overexpressing the HER2 kinase (3T3-HER2.
EGFR-HER2 Chimeric Recetor
HER2 kinase activity (EGFR-3T3) in whole cells was measured as described below:
The materials and regeants are identical to these used in example 1, the EGFR whole cell kinase assay.
A. Coat ELISA plates (Corning, 96 well, Cat. #25805-96) with 05-101 antibody at 0.5 µg per well in PBS, 100 μl final volume/well, and store overnight at 4.sunburst. C. Coated plates are good for up to 10 days when stored at 4° C.
B. On day of use, remove coating buffer and replace with 100 μl blocking buffer (5% Carnation Instant Non-Fat Dry Milk in PBS). Incubate the plate, shaking, at room temperature (about 23.sunburst. C. to 25.sunburst. C.) for 30 minutes. Just prior to use, remove blocking buffer and wash plate 4 times with TBST buffer.
A. An NIH3T3 cell line overexpressing a chimeric receptor containing the EGFR extracellular domain and extracellular HER2 kinase domain can be used for this assay.
B. Choose dishes having 80-90% confluence for the experiment. Trypsinize cells and stop reaction by adding 10% fetal bovine serum. Suspend cells in DMEM medium (10% CS DMEM medium) and centrifuge once at 1500 rpm, at room temperature for 5 minutes.
C. Resuspend cells in seeding medium (DMEM, 0.5% bovine serum), and count the cells using trypan blue. Viability above 90% is acceptable. Seed cells in DMEM medium (0.5% bovine serum) at a density of 10,000 cells per well, 100 μl per well, in a 96 well microtiter plate. Incubate seeded cells in 5% CO2 at 37.sunburst. C. for about 40 hours.
A. Check seeded cells for contamination using an inverted microscope. Dilute drug stock (10 mg/ml in DMSO) 1:10 in DMEM medium, then transfer 5 l to a […] well for a final drug dilution of 1:200 and a final DMSO concentration of 1%. Control wells receive DMSO alone. Incubate in 5% CO2 at 37° C. for two hours.
B. Prepare EGF ligand: dilute stock EGF in DMEM so that upon transfer of 10 μl dilute EGF (1:12 dilution), 100 nM final concentration is attained.
D. After 120 minutes incubation with drug, add prepared […] ligand to cells, 10 μl per well, to a final concentration of 100 nM. Control wells receive DMEM alone. Incubate, shaking, at room temperature, for 5 minutes.
E. Remove drug, EGF, and DMEM. Wash cells twice with PBS. Transfer HNTG* to cells, 100 μl per well. Place on ice for 5 minutes. Meanwhile, remove blocking buffer from other ELISA plate and wash with TBST as described above.
F. With a pipette tip securely fitted to a micropipettor, scrape cells from plate and homogenize cell material by repeatedly aspirating and dispensing the HNTG* lysis buffer. Transfer lysate to a coated, blocked, and washed ELISA plate. Incubate shaking at room temperature for one hour.
G. Remove lysate and wash 4 times with TBST. Transfer freshly diluted anti-Ptyr antibody to ELISA plate at 100 μl per well. Incubate shaking at room temperature for 30 minutes in the presence of the anti-Ptyr antiserum (1:3000 dilution in TBST).
H. Remove the anti-Ptyr antibody and wash 4 times with TBST. […]

A word on the IC50: it is the concentration at which inhibition is half-maximal.

As for `CCOC(=O)c1cnc2c(F)ccc(F)c2c1Sc1cccc(C(F)(F)F)c1` [Compound A713, 3-Ethoxycarbonyl-5,8-difluoro-4-(3-trifluoromethylphenylmercapto)quinoline], it took 7.9 µM to reach half-maximal inhibition (IC50).
Take `CCOC(=O)c1cnc2ccc(C(F)(F)F)cc2c1NCc1ccccc1C(F)(F)F` [Compound A717, 3-Ethoxycarbonyl-4-(2-trifluoromethylbenzylamino)-6-trifluoromethylquinoline]: the IC50 is > 100 µM.
For the molecule `CCOC(=O)c1cnc2ccc(C(F)(F)F)cc2c1NCc1cccc(C(F)(F)F)c1` [Compound A718, 3-Ethoxycarbonyl-4-(3-trifluoromethylbenzylamino)-6-trifluoromethylquinoline], the half-inhibitory concentration (IC50) was > 100 µM.
The value for `CCOC(=O)c1cnc2ccc(C(F)(F)F)cc2c1NCc1ccc(C(F)(F)F)cc1` [Compound A719, 3-Ethoxycarbonyl-4-(4-trifluoromethylbenzylamino)-6-trifluoromethylquinoline] was > 100 µM; that for `CCOC(=O)c1cnc2ccc(C(F)(F)F)cc2c1Nc1ccccc1C(F)(F)F` [Compound A720, 3-Ethoxycarbonyl-4-(2-trifluoromethylphenylamino)-6-trifluoromethylquinoline] was > 100 µM.
The value for `CCOC(=O)c1cnc2ccc(C(F)(F)F)cc2c1Nc1ccccc1C#N` [Compound A723, 4-(2-Cyanophenylamino)-3-ethoxycarbonyl-6-trifluoromethylquinoline] was > 100 µM; that for `CCOC(=O)c1cnc2ccc(C(F)(F)F)cc2c1Nc1ccc(C#N)cc1` [Compound A725, 4-(4-Cyanophenylamino)-3-ethoxycarbonyl-6-trifluoromethylquinoline] was > 100 µM.
The figure for `CCOC(=O)c1cnc2ccc(C(F)(F)F)cc2c1Nc1ccc(OC)c(OC)c1` [Compound A726, 3-Ethoxycarbonyl-4-(3,4-dimethoxyphenylamino)-6-trifluoromethylquinoline] is > 100 µM; for `CCOC(=O)c1cnc2ccc(C(F)(F)F)cc2c1Nc1ccc(Br)cc1` [Compound A727, 4-(4-Bromophenylamino)-3-ethoxycarbonyl-6-trifluoromethylquinoline] it is > 100 µM.
Consider `CCOC(=O)c1cnc2ccc(C(F)(F)F)cc2c1Nc1cccc(Cl)c1` [Compound A728, 4-(3-Chlorophenylamino)-3-ethoxycarbonyl-6-trifluoromethylquinoline], for which the concentration for half-maximal inhibition (IC50) was > 100 µM.
Turning to `CCOC(=O)c1cnc2ccc(C(F)(F)F)cc2c1Nc1ccc(Cl)cc1` [Compound A729, 4-(4-Chlorophenylamino)-3-ethoxycarbonyl-6-trifluoromethylquinoline], the 50% inhibitory concentration (IC50) is > 100 µM.
With `CCOC(=O)c1cnc2c(F)cc(F)cc2c1Sc1ccc(Cl)cc1` [Compound A730, 4-(4-Chlorophenylmercapto)-6,8-difluoro-3-ethoxycarbonylquinoline], the half-inhibitory concentration (IC50) was > 100 µM.
`CCOC(=O)c1cnc2cc(Cl)c(F)cc2c1Sc1ccc(Cl)cc1` [Compound A731, 7-Chloro-4-(4-chlorophenylmercapto)-6-fluoro-3-ethoxycarbonylquinoline]: the IC50 is > 100 µM.
The figure for `CCOC(=O)c1cnc2c(F)ccc(F)c2c1Sc1ccc(Cl)cc1` [Compound A732, 4-(4-Chlorophenylmercapto)-5,8-difluoro-3-ethoxycarbonylquinoline] is 50 µM.
